Experiment [1] has as its system fibroid tissue. Description: Gene expression profiling (Affymetrix microarray, RT-PCR) of fibroid tissue after 90 days treatment. Type of experiment: in vivo, human (women). The protocol:
(§1) Pre-menopausal women with symptomatic fibroids received ulipristal (10 or 20 mg; n=12) or placebo (PL) (n=6) in a blinded, randomized allocation, for 90 days before hysterectomy. No other hormonal therapy was given. Fibroid tissue and adjacent myometrium were collected at surgery and processed in RNAlater (for RNA isolation). Fibroid tissue also was processed for paraffin embedding (for immunohistochemisty (IHC) and TUNEL assay). Total RNA was used for Affymetrix microarray with the U133 Plus 2.0 human chip. Differential transcription of genes of interest was confirmed by RT-PCR analysis. The TUNEL assay and IHC for Ki67 and phosphorylaied histone 3 (phospho H3) were applied to paraffin embedded tissue sections, and the percentage of positive stained cells was noted to assess apoptosis and proliferation. RT-PCR results and proliferation assays were analyzed using two-tailed student t-test; Kruskal-Wallis test was used to assess TUNEL assay results; P<0.05 was considered significant.

Experiment [2] has as its system menstrual bleeding in women with symptomatic fibroids. Kind of experiment: Randomized placebo-controlled trial: menstrual function / bleeding. Type of experiment: in vivo, human (women). As to conditions: for menstrual bleeding: 3 cycles/90 days, placebo had monthly menses; for menses compared to placebo: 10 or 20 mg daily, 90 days. The text has this: (§2) Healthy women aged 33-50 years with symptomatic fibroids and regular menstrual cycles were considered for enrollment.
(§3) Inclusion criteria included regular cycles and contraceptive use, and symptomatic fibroids as defined by ACOG practice bulletin 1994: • Excessive uterine bleeding evidenced by either of the following: profuse bleeding with flooding or clots or repetitive periods lasting for more than 8 days; or anemia due to acute or chronic blood loss; • or pelvic discomfort caused by leiomyomata, either acute or severe or chronic lower abdominal or low back pressure or bladder pressure with urinary frequency not due to urinary tract infection.
(§4) Exclusion criteria included pregnancy, hemoglobin <10 g/dL, current hormone therapy, rapidly enlarging uterus and FSH […]. MR images were obtained to record fibroid number, location and volume, before starting study drug and within 2 weeks of surgery. Women took ulipristal at an oral dose of 10 or 20 mg, or placebo (PLC: microcrystalline cellulose) for 3 cycles, or 90 days if they became anovulatory. The percent change in total fibroid volume was compared, Wilcoxon rank sum test and t-test were used as needed.
Additional analyses evaluated treatment-related differences in menstrual function.

Experiment [3] relates to benign metastatic leiomyoma. Kind of experiment: Compassionate treatment of benign metastatic leiomyoma (single patient). The format is in vivo, human. Conditions: daily oral dose of 10-20 mg. The procedure:
A person with known benign metastatic leiomyoma status post abdominal surgery that confirmed multiple nodules was treated with ulipristal (daily oral dose of 10-20 mg), in a compassionate protocol. […] More importantly, their pulmonary function tests improved from 50% of predicted to 103% of predicted after 3 months of treatment. They felt better.

Experiment [4] deals with fibroid tissue. Kind of experiment: TUNEL assay and IHC for Ki67 and phospho H3 on fibroid tissue sections (apoptosis and proliferation). Conditions: compared to placebo. Type of experiment: in vivo, human (women). The protocol:
as §1

The next experiment deals with uterine fibroids. Description: Randomized, placebo-controlled, double blinded, parallel trial: change in total fibroid volume by MR imaging. Type of experiment: in vivo, human (women). As to conditions: for reduction in fibroid volume: three months (90 days), placebo +6%.
Excerpt: as §2, §3, §4

The next experiment deals with fibroid. Conditions: Murphy 1995, Zeng 1998; cited from earlier work.

With “17α-acetoxy-11β-[4N,N-dimethylamino-phenyl) -19-norpregna- 4,9-diene-3,20-dione [ulipristal]”, the “genes expressed differentially between ulipristal and placebo” value in the experiment with fibroid tissue [1] (microarray, 2 fold change cut-off and P<0.02) came out at 314 genes. Besides, the “Fold change of RT-PCR gene product, NDP” value in the experiment on fibroid tissue [1] (ulipristal (10 or 20 mg, 90 days) treated compared to placebo, P 0.001) is −5.6. Besides, in the experiment on fibroid tissue [1] (ulipristal (10 or 20 mg, 90 days) treated compared to placebo, P 0.006), the “Fold change of RT-PCR gene product, PLP1” value worked out at 9.2. For the same compound, the “Fold change of RT-PCR gene product, Wnt5A” value in the experiment with fibroid tissue [1] (ulipristal (10 or 20 mg, 90 days) treated compared to placebo, P 0.008) was −2.4. For the same compound, the “Fold change of RT-PCR gene product, ZAK” value in the experiment with fibroid tissue [1] (ulipristal (10 or 20 mg, 90 days) treated compared to placebo, P 0.014) is reported as 1.5. Further, the “Fold change of RT-PCR gene product, FAIM” value with fibroid tissue [1] (ulipristal (10 or 20 mg, 90 days) treated compared to placebo, P 0.017) was −1.8. Besides, the “Fold change of RT-PCR gene product, Clu” value with fibroid tissue [1] (ulipristal (10 or 20 mg, 90 days) treated compared to placebo, P 0.019) is recorded as −2.1. For the same compound, in the experiment with fibroid tissue [1] (ulipristal (10 or 20 mg, 90 days) treated compared to placebo, P 0.224), the “Fold change of RT-PCR gene product, Bcl2” value is −1.5. For the same compound, the menstrual bleeding result in experiment [2] (10 mg oral daily) is “single episode of menstrual bleeding”; in experiment [2] (20 mg oral daily), “no woman receiving 20 mg had any bleeding”. Besides, the entries for the “menses compared to placebo” value in experiment [2] and in experiment [2] (listed as CDB-2914) were “induced amenorrhea” and “significant reduction in menses”, respectively. Moreover, in experiment [3], the liver nodule entry was “decrease in a liver nodule”. The right pleural effusion entry in experiment [3] was “resolution of a right pleural effusion”. In experiment [3] (after 3 months of treatment, improved from 50% of predicted), the pulmonary function tests is 103 % of predicted. Moreover, the uterine fibroids entry in experiment [3] (two uterine fibroids) is listed as “some decrease in two uterine fibroids”. For the same compound, the measures of proliferation entry with fibroid tissue [4] (IHC Ki67 and phospho H3, fibroids after 90 days 10 or 20 mg) is recorded as “decreased measures of proliferation”. For the same compound, the measures of apoptosis entry in the experiment with fibroid tissue [4] (TUNEL assay, fibroids after 90 days 10 or 20 mg) was “increased measures of apoptosis”. Moreover, the “change in total fibroid volume” value with uterine fibroids (10 mg and 20 mg groups combined, three months, placebo 6%, p=0.01) is listed as -29%. The “reduction in fibroid volume” value in the experiment with uterine fibroids (10 mg oral daily) was determined as 36%; with uterine fibroids (20 mg oral daily) it was 21%.

`CC#C[C@]1(O)CC[C@H]2[C@@H]3CCC4=CC(=O)CCC4=C3[C@@H](c3ccc(N(C)C)cc3)C[C@@]21C` [mifepristone]: the fibroid size entry with fibroid is “reduced fibroid size in a dose-dependent manner”.

Source of the values: US20170246189A1, “METHOD FOR TREATING UTERINE FIBROIDS” (LABORATOIRE HRA-PHARMA, priority 2008, published 2017).
